Assay results: patent publication US12054495B2, “Substituted macrocyclic compounds and related methods of treatment” (Alkermes, Inc., priority 2019, dated 2024)
Like-named read-outs stand apart in the source and are kept apart here.

What was measured:
human hepatocytes = assay: Hepatocytes stability assay (human hepatocytes); type: in vitro ADME; conditions: scaled hepatic clearance divided by liver blood flow, fu assumed unity
Experimental: (§1) In vitro metabolic stability was assessed using cryopreserved hepatocytes from male Sprague Dawley rats and a pool of 50 mixed gender humans (BioIVT, Baltimore, MD). The incubation mixtures were prepared by mixing 250 μL of pre-warmed KHB (Krebs-Henseleit buffer) containing 2×10^6 cell/mL of hepatocytes with 250 μL of pre-warmed KHB buffer containing 2 μM of test compounds in a 48-well plate, giving a final concentration of 1 μM test compound (0.1% DMSO) and 1×10^6 cell/mL of hepatocytes. The reaction mixture was incubated at 37 degrees C. A 50 μL aliquot of incubation mixture was taken at time points (0, 15, 30, 60, 120 and 240 minutes) and transferred into a 96-well plate containing 300 μL ice-cold acetonitrile (containing 30 ng/mL of labetalol and 10 ng/mL of Naltrexone-d3 as internal standards) and immediately placed in ice to terminate the reaction. Samples were centrifuged, and supernatants were transferred into 96-well plates for liquid chromatography with tandem mass spectrometry (LC-MS/MS) analysis to monitor the depletion of the test compound.
(§2) Data was calculated as percent remaining by assuming zero-minute time point peak area ratio (analyte/IS) as 100% and dividing remaining time point peak area ratios by zero-minute time point peak area ratio. Data were fitted to a first-order decay model to determine half-life. From a plot of log (ln) peak area against time, the slope of the line was determined. Subsequently, half-life (T1/2) and intrinsic clearance (CLint) were calculated using the equations below: Elimination rate constant (k)=(−slope) Half-life (T1/2)min=0.693/k Intrinsic Clearance (CLint) (mL/min/million cells)=(V×0.693)/T1/2 V=incubation volume mL/number of cells The in vitro T1/2 was converted to in vitro intrinsic clearance (CLint,hep) in units of mL/min/kg using the formula shown below:
(§3) [formula] The in vitro intrinsic clearance (CLint,hep) was scaled to in vivo hepatic clearance (CL,hep) using the following equation which was adapted from a well-stirred model.
(§4) [formula] where Q is the liver blood flow and fu is the fraction unbound (assumed to be unity in this case). All parameters used in the calculation are shown below (Table 4).
(§5) The extraction ratio (ER) was calculated by dividing the hepatic clearance of a compound to the liver blood flow. The data reported in Table 5 were obtained according to the human hepatocytes stability assay described above.

[1] = Hepatocytes stability assay (human hepatocytes); type: in vitro ADME; conditions: both sexes, cryopreserved hepatocytes, 1 μM test compound, 1×10^6 cell/mL, 37 degrees C, read-out: CLint (μL/min/million cells)
Experimental: as §1, §2, §3, §4, §5

MDR1 = assay: MDCK-MDR1 permeability assay; type: in vitro ADME; conditions: dog; for Papp A→B at 2 h, 3 μM: MDCK-MDR1, MDCK-MDR1 cells, apical to basolateral, 3 μM test compound, 2 hours at 37 degrees C; for efflux ratio at 2 h, 3 μM: MDCK-MDR1, Papp (basolateral to apical) divided by Papp (apical to basolateral), MDCK-MDR1 cells, read-out: Efflux ratio (ER)
Experimental: The bidirectional permeability (Apical to Basal and Basal to Apical directions) of test compounds in MDCK-MIDR1 cells were evaluated using MDCK-MIDR1 cells seeded in Solvo PreadyPort™ MIDCK 96-well plate. Once the plate was received from ReadyCell (Barcelona, Spain), it was treated as per PreadyPort™ user's manual.
For the Apical to Basolateral (A→B) permeability, 80 μL of test compound (3 μM) co-dosed with LY (Lucifer Yellow) (100 μM) in HBSS (Hank's Balanced Salt Solution) assay buffer was added to the donor side (A) while 250 μL of HBSS buffer was added to the receiver side (B). For the Basolateral to Apical (B→A) permeability, 255 μL of test compound (3 μM) in HBSS assay buffer was added to the donor side (B) while 75 μL of HBSS buffer containing LY (100 μM) was added to the receiver side (A).
The plate was placed in an incubator set at 37 degrees C. After 10 minutes of pre-warming, 5 μL aliquot was taken from donor compartment and set aside as the dosing solution. The MDCK-MDR1 incubation plate was placed back into the incubator for 2 hours of incubation at 37 degrees C. After 2 hours of incubation, 25 μL and 5 μL aliquots were removed from the receiver and donor sides, respectively. To the 5 μL aliquots taken from the donor sides (before and after a 2-hour incubation) were diluted with 20 μL of the HBSS buffer. All samples were mixed with 150 μL with acetonitrile containing internal standard (IS) and 200 μL water, and analyzed by LC-MS/MS.
The apparent permeability (Papp) was calculated using the following formula: Papp=dQ/dt×1/A×C0 where: • dQ/dt: amount of translocated material over incubation time (nmol/s) • A: area of insert (0.14 cm^2 for PreadyPort™ MDR1-96) • C0: initial concentration of product applied in apical (A→B) or basal (B→A) compartment (nmol/mL)
The efflux ratio (ER) was measured by dividing the Papp (basolateral to apical direction) by Papp (apical to basolateral direction). It is a general measure of the involvement of active processes. An ER>2 is considered positive for active transport.
The data reported in Table 3 were obtained according to the MDCK-MIDR1 permeability assay described above.

[2] = target: T1, human orexin-2 receptor (OX2R) (Homo sapiens, UniProt O43614); assay: Human OX2R IP1 assay; type: cell-based; conditions: T-Rex CHO cells stably overexpressing human OX2R, IP1 accumulation, 1 hr at 37 degrees C; mean EC50; ∧ = racemic mixture
T1 construct: expressed in transfected cells
T1 sequence (O43614 1-444): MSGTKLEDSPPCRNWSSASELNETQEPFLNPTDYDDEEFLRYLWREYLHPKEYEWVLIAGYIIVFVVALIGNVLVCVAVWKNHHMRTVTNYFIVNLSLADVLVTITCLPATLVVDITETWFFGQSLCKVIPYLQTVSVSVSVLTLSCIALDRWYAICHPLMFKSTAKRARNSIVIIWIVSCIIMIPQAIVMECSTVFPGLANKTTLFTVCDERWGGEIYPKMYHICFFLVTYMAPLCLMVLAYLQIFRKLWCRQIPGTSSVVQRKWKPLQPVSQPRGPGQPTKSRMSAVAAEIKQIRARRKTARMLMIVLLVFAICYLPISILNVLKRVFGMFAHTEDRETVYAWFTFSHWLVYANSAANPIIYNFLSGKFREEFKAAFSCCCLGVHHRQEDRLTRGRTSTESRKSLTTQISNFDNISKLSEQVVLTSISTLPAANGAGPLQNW
Experimental: T-Rex CHO cells stably overexpressing the human orexin-2 receptor (OX2R) were induced overnight with 1 μg/mL of doxycycline in a T225 flask. 24 hours post induction, cells were lifted with accutase and plated into a 384-well proxy plate at 30,000 cells/well. Cells were then treated with different test compounds in 1× stimulation buffer containing 10 mM Hepes, 1 mM CaCl2), 0.5 mM MgCl2, 4.2 mM KCl, 146 mM NaCl, 5.5 mM glucose, and 50 mM LiCl, pH 7.4, for 1 hr at 37 degrees C. Following incubation, the reaction was terminated by the addition of detection mix, which is composed of IP1-d2 and anti-IP1-cryptate diluted in lysis buffer as well as 1× stimulation buffer. The plates were allowed to incubate for 1 hour at room temperature and were then read in the EnVision® multimode plate reader, measuring inositol phosphate levels.
Cisbio IP1 is a cell-based functional assay quantifying the accumulation of inositol monophosphate (IP), a metabolite released as a result of orexin 2 receptor activation through the phospholipase C-Gq signaling pathway. This is a competitive immunoassay in which the IP1 produced by the cells upon receptor activation competes with the IP1 analog coupled to the d2 fluorophore (acceptor) for binding to an anti-IP1 monoclonal antibody labeled with Eu cryptate (donor). The measured HTRF-FRET based signal is inversely proportional to the IP1 concentration produced.
The EC50 values reported in Table 2 were obtained according to the human OX2R IP1 assay described above. Data are the mean EC50 values ±S.E.M. The compound methyl (2R,3S)-3-((methylsulfonyl)amino)-2-(((cis-4-phenylcyclohexyl)oxy)methyl)-piperidine-1-carboxylate is a reference compound which is disclosed in Example 5 of PCT publication no. WO2017/135306.

[3] = amide bond, HATU/DIEA, 2.0 h

Structure (SMILES)	Extraction Ratio (ER) (human hepatocytes)	hepatocyte CLint at 1 μM [1] [µL/min/1e6 cells]	Papp A→B at 2 h, 3 μM (MDR1) [×10⁻⁶ cm/s]	efflux ratio at 2 h, 3 μM (MDR1)	EC50 [2] [µM]	ring closure, isolated yield ([3]; from CC(C)(C)OC(=O)N[C@H]1CCCN[C@H]1COC1CCC(c2ccccc2OCCCC(=O)O)CC1, 15-membered ring, MeCN/DMF 8:1, 18.1 mM) [%]	ring closure, isolated yield ([3]; from CC(C)(C)OC(=O)N([C@H]1CCN[C@H]1COC1CCC(c2cccnc2OCC(=O)O)CC1)S(C)(=O)=O, 13-membered ring, MeCN, 9.5 mM) [%]
CS(=O)(=O)N[C@@H]1CCCN2C(=O)COc3cccnc3[C@H]3CC[C@H](CC3)OC[C@H]12 (racemic) [Compound 15]	<0.22	< 1.9	0.08	22	0.1 to 1	–	–
CS(=O)(=O)N[C@@H]1CCCN2C(=O)COc3cnccc3[C@H]3CC[C@H](CC3)OC[C@H]12 (racemic) [Compound 47]	0.31	3	0.09	49	< 0.1	–	–
[2H]C1([2H])COc2ccccc2C2CCC(CC2)OCC2[C@@H](NS(C)(=O)=O)CCCN21 (some centres unmarked) [Compound 60]	0.89	54	8.8	1.4	0.1 to 1	–	–
CS(=O)(=O)N[C@H]1CCCN2C(=O)COc3ccccc3C3CC[C@H](CO3)OCC12 (some centres unmarked) [Compound 9]	0.50	6.7	0.45	2.6	< 0.1	–	–
CS(=O)(=O)N[C@H]1CCCN2C(=O)COc3ccccc3C3CC[C@@H](CO3)OCC12 (some centres unmarked) [Compound 8]	0.46	5.8	0.48	3.8	< 0.1	–	–
CC(C)(C)OC(=O)N[C@H]1CCCN2C(=O)CCCOc3ccccc3C3CCC(CC3)OC[C@@H]12	–	–	–	–	–	77.9	–
C[C@@H]1COc2ccccc2C2CCC(CC2)OCC2[C@@H](NS(C)(=O)=O)CCCN21 (some centres unmarked) [Compound 63]	0.86	40	9.1	0.75	> 1	–	–
CC(C)(C)OC(=O)N([C@H]1CCN2C(=O)COc3ncccc3C3CCC(CC3)OC[C@@H]12)S(C)(=O)=O	–	–	–	–	–	–	41.4
